Measurements published in patent US10772886B2, “CXCR-2 inhibitors for treating crystal arthropathy disorders” (ARDEA BIOSCIENCES, INC., priority 2016, dated 2020).

Key:
Format in all cases: in vivo
[1] = test system: rat air pouch model of crystal-induced arthropathy (MSU); test: Rat air pouch model of crystal-induced arthropathy, Example 4 (Compound 2)
Experimental: Sodium hydroxide (40 g, Fisher Scientific) was dissolved in de-ionized water (100 mL, dH2O) to provide a 10N solution. Uric acid (16 g, Sigma) was added to de-ionized water (3400 mL) containing sodium hydroxide solution (11.8 mL, 10N) and heated to 60° C. with constant stirring. […] The resulting clear solution was cooled to 4-8° C., resulting in the formation of crystals, which were isolated by filtration, washed three times with de-ionized wa[…]) and dried at 37° C. The dried mono sodium urate crystals were sifted into an air-tight container for storage. […] Methylcellulose (0.4 g, Sigma) was dissolved in de-ionized water (100 mL) to provide a 0.4% solution used as vehicle. […] Test compounds were suspended in vehicle to provide the desired concentrations, and diluted accordingly. […] Male Sprague-Dawley rats (Charles River Laboratories, 160-180 g) were received, individually examined and housed in cages of five rats each. The animals were in apparent good health with no clinical signs of disease or distress. The rats were placed in quarantine with daily inspections, ear notched for identification purposes and shaved at the nape of the neck. The rats were anesthetized (isoflurane), and the nape of the neck was cleansed with 70% isopropanol (Butler Animal Health Supply) followed by povidone-iodine solution (Ricca Chemical Co.). […] The rats were returned to routine housing with no adverse reactions observed. The rats were weighed and sorted into treatment groups based on average body weight. As appropriate, the rats were dosed orally with test compound or vehicle (saline alone). […] Thirty minutes after SC injection or two hours after PO dosing, MSU (15 mL) was injected into the air pouch using an 18 G×2 inch needle fitted to a 20 mL syringe. Control group was injected with 15 mL sterile saline (vehicle). The injection sites were closed (collodion, Macron) and the rats returned to their cages with no adverse effects observed. Four hours after MSU/saline injection, the rats were anesthetized and heparinized saline (5 mL, 10 U/mL) was injected into the air pouch. […] An aliquot of the exudate was transferred to green Eppendorf tubes for total white blood cell (WBC) measurement. After allowing the MSU crystals to settle out for ten minutes, an aliquot of the exudate was transferred to heparinized microtainer tubes (Becton Dickinson) for differential white blood cell counts. The remainder of the exudate was centrifuged and an aliquot of the supernatants was dispensed to labeled clear Eppendorf tubes and stored at -80° C. The rats were exsanguinated into pre-chilled serum separator tubes, processed to serum, and 0.5 mL aliquot was stored at -80° C. in labeled Eppendorf tubes. […] [table]

[2] = test system: rat air pouch model of crystal-induced arthropathy (MSU); test: Rat air pouch model, Example 6 (Compounds 2, 3 and 4)
Experimental: (§1) Sodium hydroxide (40 g, Fisher Scientific) was dissolved in de-ionized water (100 mL, dH2O) to provide a 10N solution. Uric acid (16 g, Sigma) was added to de-ionized water (3400 mL) containing sodium hydroxide solution (11.8 mL, 10N) and heated to 60° C. with constant stirring. […] The resulting clear solution was cooled to 4-8° C., resulting in the formation of crystals, which were isolated by filtration, washed three times with de-ionized wa[…]) and dried at 37° C. The dried mono sodium urate crystals were sifted into an air-tight container for storage. […] Methylcellulose (0.4 g, Sigma) was dissolved in de-ionized water (100 mL) to provide a 0.4% solution used as vehicle. […] Test compounds were suspended in vehicle to provide the desired concentrations, and diluted accordingly. […] Male Sprague-Dawley rats (Charles River Laboratories, 160-180 g) were received, individually examined and housed in cages of five rats each. The animals were in apparent good health with no clinical signs of disease or distress. The rats were placed in quarantine with daily inspections, ear notched for identification purposes and shaved at the nape of the neck. The rats were anesthetized (isoflurane), and the nape of the neck was cleansed with 70% isopropanol (Butler Animal Health Supply) followed by povidone-iodine solution (Ricca Chemical Co.). Sterile air (30 mL, 0.2 μm, Millipore) was injected subcutaneously using a 23 G×11⁄2 inch needle fixed to a 30 mL syringe. The rats were returned to routine housing with no adverse reactions observed. The rats were anesthetized (isoflurane), and the nape of the neck was cleansed with 70% isopropanol (Butler Animal Health Supply) followed by povidone-iodine solution (Ricca Chemical Co.). Sterile air (15 mL, 0.11 μm, Millipore) was injected subcutaneously using a 23 G×11⁄2 inch needle fixed to a 20 mL syringe. The rats were returned to routine housing with no adverse reactions observed. The rats were weighed and sorted into treatment groups based on average body weight. As appropriate, the rats were dosed orally with test compound or vehicle (saline alone). […] Thirty minutes after SC injection or two hours after PO dosing, MSU (15 mL) was injected into the air pouch using an 18 G×2 inch needle fitted to a 20 mL syringe. Control group was injected with 15 mL sterile saline (vehicle). The injection sites were closed (collodion, Macron) and the rats returned to their cages with no adverse effects observed. Four hours after MSU/saline injection, the rats were anesthetized and heparinized saline (5 mL, 10 U/mL) was injected into the air pouch. […] An aliquot of the exudate was transferred to green Eppendorf tubes for total white blood cell (WBC) measurement. After allowing the MSU crystals to settle out for ten minutes, an aliquot of the exudate was transferred to heparinized microtainer tubes (Becton Dickinson) for differential white blood cell counts. The remainder of the exudate was centrifuged and an aliquot of the supernatants was dispensed to labeled clear Eppendorf tubes and stored at -80° C. The rats were exsanguinated into pre-chilled serum separator tubes, processed to serum, and 0.5 mL aliquot was stored at -80° C. in labeled Eppendorf tubes. […] [table]

[3] = test system: rat air pouch model of crystal-induced arthropathy (MSU); test: Rat air pouch model, Example 7 (Compounds 3 and 4 in combination with colchicine)
Experimental: as §1

[4] = 3.0 umol/kg PO + Colchicine 0.1 mpk SC, Group 10
[5] = 1 umol/kg PO + Colchicine 0.1 mpk SC, Group 9

COc1cc2c(c(OC)c1OC)-c1ccc(OC)c(=O)cc1[C@@H](NC(C)=O)CC2 [Colchicine, COLCHICINE, reference compound]
Avg Exudate Vol ([1]; 1 mg/kg SC, Group 3): ***6.4 mL
Avg Total WBC ([1]; 1 mg/kg SC, Group 3): **17.6 ×10^6
Neutrophils ([1]; 1 mg/kg SC, Group 3): **11.0 ×10^6
Avg Exudate Vol ([2]; 1 mpk SC, Group 4): 5.8 mL
Avg Total WBC ([2]; 1 mpk SC, Group 4): 17 ×10^6
Neutrophils ([2]; 1 mpk SC, Group 4): 9.9 ×10^6
Avg Exudate Vol ([3]; 0.1 mpk SC, Group 3): 12 mL
Avg Total WBC ([3]; 0.1 mpk SC, Group 3): 240 ×10^6
Neutrophils ([3]; 0.1 mpk SC, Group 3): 205 ×10^6
Avg Exudate Vol ([3]; 1.0 mpk SC, Group 4): 6 mL
Avg Total WBC ([3]; 1.0 mpk SC, Group 4): 22 ×10^6
Neutrophils ([3]; 1.0 mpk SC, Group 4): 10.8 ×10^6

CC[C@@H](Nc1c(Nc2cccc(C(=O)N(C)C)c2O)c(=O)c1=O)c1ccc(C)o1 [Compound 2, (R)-2-hydroxy-N,N-dimethyl-3-((2-((1-(5-methylfuran-2-yl)propyl)amino)-3,4-dioxocyclobut-1-en-1-yl)amino)benzamide]
Avg Exudate Vol ([1]; 0.3 mg/kg PO, Group 4): 10.1 mL
Avg Total WBC ([1]; 0.3 mg/kg PO, Group 4): 145.2 ×10^6
Neutrophils ([1]; 0.3 mg/kg PO, Group 4): 114.2 ×10^6
Avg Exudate Vol ([1]; 3 mg/kg PO, Group 5): 9.3 mL
Avg Total WBC ([1]; 3 mg/kg PO, Group 5): *33.4 ×10^6
Neutrophils ([1]; 3 mg/kg PO, Group 5): *19.8 ×10^6
Avg Exudate Vol ([1]; 30 mg/kg PO, Group 6): ***6.8 mL
Avg Total WBC ([1]; 30 mg/kg PO, Group 6): *51.7 ×10^6
Neutrophils ([1]; 30 mg/kg PO, Group 6): **16.0 ×10^6
Avg Exudate Vol ([2]; 3 mpk PO, Group 3): 8.4 mL
Avg Total WBC ([2]; 3 mpk PO, Group 3): 22 ×10^6
Neutrophils ([2]; 3 mpk PO, Group 3): 11.8 ×10^6

C[C@@H](Oc1cc(NS(=O)(=O)N2CCC2)nc(SCc2cccc(F)c2F)n1)[C@@H](O)CO [Compound 3, N-(2-((2,3-difluorobenzyl)thio)-6-(((2R,3S)-3,4-dihydroxybutan-2-yl)oxy)pyrimidin-4-yl)azetidine-1-sulfonamide]
Avg Exudate Vol ([2]; 0.3 umol/kg PO, Group 5): 10.7 mL
Avg Total WBC ([2]; 0.3 umol/kg PO, Group 5): 180 ×10^6
Neutrophils ([2]; 0.3 umol/kg PO, Group 5): 155 ×10^6
Avg Exudate Vol ([2]; 3.0 umol/kg PO, Group 6): 10 mL
Avg Total WBC ([2]; 3.0 umol/kg PO, Group 6): 190 ×10^6
Neutrophils ([2]; 3.0 umol/kg PO, Group 6): 121 ×10^6
Avg Exudate Vol ([2]; 30 umol/kg PO, Groups 7, 9): 7 mL
Avg Total WBC ([2]; 30 umol/kg PO, Groups 7, 9): 96 ×10^6
Neutrophils ([2]; 30 umol/kg PO, Groups 7, 9): 44.6 ×10^6
Avg Exudate Vol [3, 4]: 7.8 mL
Avg Total WBC [3, 4]: 120 ×10^6
Neutrophils [3, 4]: 159 ×10^6
Avg Exudate Vol ([3]; 3 umol/kg PO, Group 5): 11.1 mL
Avg Total WBC ([3]; 3 umol/kg PO, Group 5): 180 ×10^6
Neutrophils ([3]; 3 umol/kg PO, Group 5): 133 ×10^6
Avg Exudate Vol ([3]; 30 umol/kg PO, Groups 6, 8): 7.4 mL
Avg Total WBC ([3]; 30 umol/kg PO, Groups 6, 8): 110 ×10^6
Neutrophils ([3]; 30 umol/kg PO, Groups 6, 8): 65.2 ×10^6

CC1CN(S(=O)(=O)Nc2cc(O[C@H](C)[C@@H](O)CO)nc(SCc3ccc(F)cc3)n2)C1 [Compound 4, N-(6-(((2R,3S)-3,4-dihydroxybutan-2-yl)oxy)-2-((4-fluorobenzyl)thio)pyrimidin-4-yl)-3-methylazetidine-1-sulfonamide]
Avg Exudate Vol ([2]; 1.0 umol/kg PO, Group 8): 10 mL
Avg Total WBC ([2]; 1.0 umol/kg PO, Group 8): 270 ×10^6
Neutrophils ([2]; 1.0 umol/kg PO, Group 8): 165 ×10^6
Avg Exudate Vol ([2]; 30 umol/kg PO, Groups 7, 9): 7 mL
Avg Total WBC ([2]; 30 umol/kg PO, Groups 7, 9): 140 ×10^6
Neutrophils ([2]; 30 umol/kg PO, Groups 7, 9): 95.4 ×10^6
Avg Exudate Vol ([2]; 100 umol/kg PO, Group 10): 6.5 mL
Avg Total WBC ([2]; 100 umol/kg PO, Group 10): 76 ×10^6
Neutrophils ([2]; 100 umol/kg PO, Group 10): 48.6 ×10^6
Avg Exudate Vol [3, 5]: 10.3 mL
Avg Total WBC [3, 5]: 210 ×10^6
Neutrophils [3, 5]: 179 ×10^6
Avg Exudate Vol ([3]; 1 umol/kg PO, Group 7): 11.8 mL
Avg Total WBC ([3]; 1 umol/kg PO, Group 7): 160 ×10^6
Neutrophils ([3]; 1 umol/kg PO, Group 7): 121 ×10^6
Avg Exudate Vol ([3]; 30 umol/kg PO, Groups 6, 8): 8.1 mL
Avg Total WBC ([3]; 30 umol/kg PO, Groups 6, 8): 100 ×10^6
Neutrophils ([3]; 30 umol/kg PO, Groups 6, 8): 69.6 ×10^6
